Assay results reported in patent US11083725B2 (priority 2014, dated 2021).

Tested on: NHBE cells
Experiment: Biolog metabolic array: substrate use by NHBE cells with or without CA09 infection
Format: cell-based, human
Settings: for Substrate use, 590 nm absorbance normalized to zero hour, 0 hr: Biolog PMM2, 0 hr; for Substrate use, 590 nm absorbance normalized to zero hour, 1 hr: Biolog PMM2, 1 hr; for Substrate use, 590 nm absorbance normalized to zero hour, 5 hr: Biolog PMM2, 5 hr; for Substrate use, 590 nm absorbance normalized to zero hour, 7 hr: Biolog PMM2, 7 hr
[1] = Control (uninfected) NHBE cells
[2] = Virus (CA09, MOI 1) infected NHBE cells
[3] = Virus (CA09-infected, MOI 1) NHBE cells

SMILES	590 nm absorbance normalized to zero hour (substrate use), 1 hr [1]	590 nm absorbance normalized to zero hour (substrate use), 2 hr [1]	590 nm absorbance normalized to zero hour (substrate use), 3 hr [1]	590 nm absorbance normalized to zero hour (substrate use), 4 hr [1]	590 nm absorbance normalized to zero hour (substrate use), 6 hr [1]	590 nm absorbance normalized to zero hour (substrate use), 8 hr [1]	590 nm absorbance normalized to zero hour (substrate use), 9 hr [1]	590 nm absorbance normalized to zero hour (substrate use), 10 hr [1]	590 nm absorbance normalized to zero hour (substrate use), 11 hr [1]	Substrate use, 590 nm absorbance normalized to zero hour, 1 hr [1]	Substrate use, 590 nm absorbance normalized to zero hour, 5 hr [1]	Substrate use, 590 nm absorbance normalized to zero hour, 7 hr [1]	Substrate use, 590 nm absorbance normalized to zero hour, 1 hr [2]	Substrate use, 590 nm absorbance normalized to zero hour, 5 hr [2]	Substrate use, 590 nm absorbance normalized to zero hour, 7 hr [2]	590 nm absorbance normalized to zero hour (substrate use), 1 hr [3]	590 nm absorbance normalized to zero hour (substrate use), 2 hr [3]	590 nm absorbance normalized to zero hour (substrate use), 3 hr [3]	590 nm absorbance normalized to zero hour (substrate use), 4 hr [3]	590 nm absorbance normalized to zero hour (substrate use), 6 hr [3]	also measured
N[C@@H](C(=O)O)[C@@H](O)[C@H](O)[C@H](O)CO [D-Glucosaminic Acid]	0.86	0.94	0.90	1.21	0.36	0.97	0.98	0.97	0.39	0.86	1.22	0.95	1.69	3.09	3.47	1.69	2.21	2.51	2.69	3.31	590 nm absorbance normalized to zero hour (substrate use), 0 hr [1]: 1.00; Substrate use, 590 nm absorbance normalized to zero hour, 0 hr [1]: 1.00; Substrate use, 590 nm absorbance normalized to zero hour, 0 hr [2]: 1.00; 590 nm absorbance normalized to zero hour (substrate use), 0 hr [3]: 1.00; 590 nm absorbance normalized to zero hour (substrate use), 8 hr [3]: 3.57; 590 nm absorbance normalized to zero hour (substrate use), 9 hr [3]: 3.89; 590 nm absorbance normalized to zero hour (substrate use), 10 hr [3]: 3.88; 590 nm absorbance normalized to zero hour (substrate use), 11 hr [3]: 3.32
O=P(O)(O)O[C@H]1O[C@H](CO)[C@@H](O)[C@H](O)[C@H]1O [D-Glucose-1-Phosphate]	1.01	1.31	1.24	1.16	0.33	1.03	1.09	1.06	0.93	1.01	1.12	1.10	1.74	3.94	4.56	1.74	2.39	2.86	3.20	4.34	590 nm absorbance normalized to zero hour (substrate use), 0 hr [1]: 1.00; Substrate use, 590 nm absorbance normalized to zero hour, 0 hr [1]: 1.00; Substrate use, 590 nm absorbance normalized to zero hour, 0 hr [2]: 1.00; 590 nm absorbance normalized to zero hour (substrate use), 0 hr [3]: 1.00; 590 nm absorbance normalized to zero hour (substrate use), 8 hr [3]: 4.91; 590 nm absorbance normalized to zero hour (substrate use), 9 hr [3]: 5.77; 590 nm absorbance normalized to zero hour (substrate use), 10 hr [3]: 5.49; 590 nm absorbance normalized to zero hour (substrate use), 11 hr [3]: 6.50
O=C[C@H](O)[C@@H](O)[C@H](O)[C@H](O)COP(=O)(O)O [D-Glucose-6-Phosphate]	1.14	1.18	3.24	1.30	0.74	1.28	1.38	2.69	1.87	1.14	1.48	2.93	2.01	4.92	5.87	2.01	3.00	3.61	4.04	5.47	590 nm absorbance normalized to zero hour (substrate use), 8 hr [3]: 6.35; 590 nm absorbance normalized to zero hour (substrate use), 9 hr [3]: 7.41; 590 nm absorbance normalized to zero hour (substrate use), 10 hr [3]: 7.21; 590 nm absorbance normalized to zero hour (substrate use), 11 hr [3]: 5.87
O=C[C@H](O)[C@@H](O)[C@H](O)[C@H](O)C(=O)O [D-Glucuronic Acid]	1.13	1.37	1.29	1.42	0.86	1.83	1.90	2.04	2.34	1.13	1.57	1.71	1.44	2.79	3.14	1.44	1.90	2.18	2.37	2.96	590 nm absorbance normalized to zero hour (substrate use), 8 hr [3]: 3.24; 590 nm absorbance normalized to zero hour (substrate use), 9 hr [3]: 3.62; 590 nm absorbance normalized to zero hour (substrate use), 10 hr [3]: 3.66; 590 nm absorbance normalized to zero hour (substrate use), 11 hr [3]: 3.99
